Data: patent US4232013A, “16,17-Pyrazolino- and 16,17-isopyrazolino-1,4-pregnadiene derivatives” (Lark S.p.A., priority 1977, dated 1980)

Legend:
LD50 (acute toxicity) = settings: in vivo, topical or ocular; Table 1, topical administration
Source text: (§1) In the following Table 1. there are reported the achieved results with regard to the anti-inflammatory activity, the thymolitic activity, and the LD50 values: […]

granuloma formation = assay: cotton granuloma assay, topical anti-inflammatory activity; assay type: in vivo, rat (adult female albino, Sprague-Dawley); parameters: key: relative potency; comparison steroid = 1; settings: 20-2-0.2 mcg/cotton pellet, 7 days; for Anti-inflammatory activity (*): (*) in comparison with Fluocinolone acetonide; for Anti-inflammatory activity (**): (**) in comparison with Dexamethasone 21-acetate
Description: (§2) The topical anti-inflammatory activity of the new compounds of this invention was determined using the cotton granuloma assay. This test was performed according to C. A. Winter and C. C. Porter J. Am. Pharm. Ass. Sci., Ed. 46, 515. 1957 using adult female albino rats (Sprague-Dawley) average body weight 150 grams. 8 animals per group.
(§3) The method consists in the subcutaneous implantation in the dorsal region of 2 sterile cotton pelletts. The pellets employed were 5 mm section cut from dental cotton rolls weighing about 45 mg each. The tested compound dissolved in ethyl alcohol, was absorbed on the pellets before implantation. Fluocinolone acetonide and Dexamethasone-21-acetate was used as comparison products and their activities were conventionally taken equal to 1 for each of the various parameters herein considered. Comparison substance and tested new compounds were absorbed on the pellets at the following scalar dosage per each pellet: 20-2-0.2 mcg/cotton pellet. For the controls the pellets were soakened in the pure solvent (ethyl alcohol) and then dried as usually.
After seven days the animals were sacrified. The pellets were removed and the exudate weights were recorded as a measure of the granuloma formation. The degree of granuloma inhibition reflects the anti-inflammatory activity of the tested compounds.
as §1

[1] = thymolytic activity (topical administration); assay type: in vivo, rat (adult female albino, Sprague-Dawley)
Description: as §2, §3, §1

[2] = tested on: vasoconstrictive activity, human volunteers; assay: vasoconstrictive activity in human volunteers (McKenzie and Stoughton's test or Falconi and Rossi's Paper-Patch Test); assay type: in vivo; settings: for vasoconstrictive activity (in words): human volunteers
Source text: Some of the esters have been tested in human volunteers for their vasoconstrictive activity using the McKenzie and Stoughton's test (1) or the Falconi and Rossi's Paper-Patch Test (2) in comparison with a known anti-inflammatory corticosteroid, namely fluocinolone acetonide.
In the first experiment 2 dilutions of 4 esters have been tested on volunteers and 10 dilutions have been applied for each subject.
1. Mc Kenzie, A.W., Stoughton, R.B.: Method for comparing percutaneous
absorption of Steroids. Arch. Derm. 86, 608, 1962.
vasoconstrictive activity of Corticosteroids. Arch. Derm. 105, 856, 1972.

[3] = topical, relative, comparison product conventionally equal to 1 (Dexamethasone 21-acetate = 1)
[4] = Table 2, first trial, dilution 10^4
[5] = Table 2, first trial, dilution 10^5
[6] = Table 2a, second trial, dilution 10^3
[7] = Table 2a, second trial, dilution 10^4
[8] = Table 2a, second trial, dilution 10^5
[9] = Table 2a, second trial, dilution 10^6

SMILES	LD50 (LD50 (acute toxicity))	Anti-inflammatory activity (*) (granuloma formation)	Anti-inflammatory activity (**) (granuloma formation)	Thymolytic activity [1, 3]	% Positive [2, 4]	Results (Positive/No. of subjects) [2, 4]	% Positive [2, 5]	Results (Positive/No. of subjects) [2, 5]	also measured
CC(=O)OCC(=O)[C@@]12NN=C[C@@H]1C[C@H]1[C@@H]3C[C@H](F)C4=CC(=O)C=C[C@]4(C)[C@@]3(F)[C@@H](O)C[C@@]12C [16,17 M Dif-AC, 16α,17α-Isopyrazolino-1,4-pregnadiene-6α,9α-difluoro-11β,21-diol-3,20-dione 21-acetate]	1120 mg/kg	> 10	> 20	0.26					
CC(=O)OCC(=O)[C@@]12NN=C[C@@H]1C[C@H]1[C@@H]3CCC4=CC(=O)C=C[C@]4(C)[C@@]3(F)[C@@H](O)C[C@@]12C [16-17 MF-AC, 16α,17α-Isopyrazolino-1,4-pregnadiene-9α-fluoro-11β,21-diol-3,20-dione-21-acetate]	> 2000 mg/kg	> 10	> 20	0.02					
CC(C)(C)C(=O)OCC(=O)[C@@]12NN=C[C@@H]1C[C@H]1[C@@H]3C[C@H](F)C4=CC(=O)C=C[C@]4(C)[C@@]3(F)[C@@H](O)C[C@@]12C [16-17-M-Dif-Piv, 16α,17α-Isopyrazolino-1,4-pregnadiene-6α,9α-difluoro-11β,21-diol-3,20-dione-21-pivalate]					20%	1/5	0%	0/5	
CCCCC(=O)OCC(=O)[C@@]12NN=C[C@@H]1C[C@H]1[C@@H]3C[C@H](F)C4=CC(=O)C=C[C@]4(C)[C@@]3(F)[C@@H](O)C[C@@]12C [16-17-M-Dif-Va, 16α,17α-Isopyrazolino-1,4-pregnadiene-6α,9α-difluoro-11β,21-diol-3,20-dione-21-valerate]					100%	5/5	40%	2/5	% Positive [2, 6]: 100%; Results (Positive/No. of subjects) [2, 6]: 5/5; % Positive [2, 7]: 80%; Results (Positive/No. of subjects) [2, 7]: 4/5; % Positive [2, 8]: 80%; Results (Positive/No. of subjects) [2, 8]: 4/5; % Positive [2, 9]: 60%; Results (Positive/No. of subjects) [2, 9]: 3/5; vasoconstrictive activity (in words) [2]: showed the best activity in the first trial; vasoconstrictive activity (in words) ([2]; listed as 16-17-Dif-Va): showed the same potency as fluocinolone acetonide even at the lower concentrations employed in the trials
CC(=O)OCC(=O)[C@@]1(O)[C@H](C)C[C@H]2[C@@H]3CCC4=CC(=O)C=C[C@]4(C)[C@@]3(F)[C@@H](O)C[C@@]21C [Dexamethasone 21-acetate, reference compound]	259 mg/kg	1	1						Thymolytic activity ([1]; rat, in vivo): 1
CCCC(=O)OCC(=O)[C@@]12NN=C[C@@H]1C[C@H]1[C@@H]3C[C@H](F)C4=CC(=O)C=C[C@]4(C)[C@@]3(F)[C@@H](O)C[C@@]12C [Example 16-17-Dif-Bu, 16α,17α-Isopyrazolino-1,4-pregnadiene-6α,9α-difluoro-11β,21-diol-3,20-dione-21-butyrate]					60%	3/5	20%	1/5	
CCCCC(=O)OCC(=O)[C@@]12NN=C[C@@H]1C[C@H]1[C@@H]3CCC4=CC(=O)C=C[C@]4(C)[C@@]3(F)[C@@H](O)C[C@@]12C [Example 16-17-M-F-Va, 16α,17α-Isopyrazolino-1,4-pregnadiene-9α-fluoro-11β,21-diol-3,20-dione-21-valerate]					100%	5/5	40%	1/5	
CC1(C)O[C@@H]2C[C@H]3[C@@H]4C[C@H](F)C5=CC(=O)C=C[C@]5(C)[C@@]4(F)[C@@H](O)C[C@]3(C)[C@]2(C(=O)CO)O1 [Fluocinolone acetonide, reference compound]	166 mg/kg	2	2		100%	5/5	60%	3/5	Thymolytic activity ([1]; rat, in vivo): 0.83
CC(=O)OCC(=O)[C@@]12N=NC[C@@H]1C[C@H]1[C@@H]3C[C@H](F)C4=CC(=O)C=C[C@]4(C)[C@@]3(F)[C@@H](O)C[C@@]12C [Pyr Dif-AC, 16α,17α-Pyrazolino-1,4-pregnadiene-6α,9α-difluoro-11β,21-diol-3,20-dione 21-acetate]	439 mg/kg	> 10	> 20	0.52					
CC(=O)OCC(=O)[C@@]12N=NC[C@@H]1C[C@H]1[C@@H]3CCC4=CC(=O)C=C[C@]4(C)[C@@]3(F)[C@@H](O)C[C@@]12C [Pyr-F-Ac, 16α,17α-Pyrazolino-1,4-pregnadiene-9α-fluoro-11β,21-diol-3,20-dione-21-acetate]	721 mg/kg	≥ 10	≥ 20	0.14					
CC1(C)O[C@@H]2C[C@H]3[C@@H]4CCC5=CC(=O)C=C[C@]5(C)[C@@]4(F)[C@@H](O)C[C@]3(C)[C@]2(C(=O)CO)O1 [Triamcinolone acetonide, reference compound]									% Positive [2, 6]: 100%; Results (Positive/No. of subjects) [2, 6]: 5/5; % Positive [2, 7]: 100%; Results (Positive/No. of subjects) [2, 7]: 5/5; % Positive [2, 8]: 60%; Results (Positive/No. of subjects) [2, 8]: 3/5; % Positive [2, 9]: 40%; Results (Positive/No. of subjects) [2, 9]: 2/5
